In PMC4151564 (Journal of medicinal chemistry, 2011):

What was measured:
[1] = target: T1, eukaryotic topoisomerase IIα (Homo sapiens, UniProt P11388); test: Gel-based Topo-IIα inhibition mechanism assay; assay type: biochemical; conditions: 500 μM inhibitor, 4 units enzyme
[2] = target: T1, eukaryotic topoisomerase IIα; test: Topo-IIα inhibition, agarose gel supercoiled DNA relaxation assay; assay type: biochemical; conditions: for Topo-IIα inhibition at 100 μM: 100 μM TSC ligand, gel Figure 1B
[3] = target: T1, eukaryotic topoisomerase IIα; conditions: read-out: Topo-IIα inhibition IC50; literature range; cited from earlier work
Topo-IIα = conditions: cited from earlier work

T1 sequence (P11388 whole entry): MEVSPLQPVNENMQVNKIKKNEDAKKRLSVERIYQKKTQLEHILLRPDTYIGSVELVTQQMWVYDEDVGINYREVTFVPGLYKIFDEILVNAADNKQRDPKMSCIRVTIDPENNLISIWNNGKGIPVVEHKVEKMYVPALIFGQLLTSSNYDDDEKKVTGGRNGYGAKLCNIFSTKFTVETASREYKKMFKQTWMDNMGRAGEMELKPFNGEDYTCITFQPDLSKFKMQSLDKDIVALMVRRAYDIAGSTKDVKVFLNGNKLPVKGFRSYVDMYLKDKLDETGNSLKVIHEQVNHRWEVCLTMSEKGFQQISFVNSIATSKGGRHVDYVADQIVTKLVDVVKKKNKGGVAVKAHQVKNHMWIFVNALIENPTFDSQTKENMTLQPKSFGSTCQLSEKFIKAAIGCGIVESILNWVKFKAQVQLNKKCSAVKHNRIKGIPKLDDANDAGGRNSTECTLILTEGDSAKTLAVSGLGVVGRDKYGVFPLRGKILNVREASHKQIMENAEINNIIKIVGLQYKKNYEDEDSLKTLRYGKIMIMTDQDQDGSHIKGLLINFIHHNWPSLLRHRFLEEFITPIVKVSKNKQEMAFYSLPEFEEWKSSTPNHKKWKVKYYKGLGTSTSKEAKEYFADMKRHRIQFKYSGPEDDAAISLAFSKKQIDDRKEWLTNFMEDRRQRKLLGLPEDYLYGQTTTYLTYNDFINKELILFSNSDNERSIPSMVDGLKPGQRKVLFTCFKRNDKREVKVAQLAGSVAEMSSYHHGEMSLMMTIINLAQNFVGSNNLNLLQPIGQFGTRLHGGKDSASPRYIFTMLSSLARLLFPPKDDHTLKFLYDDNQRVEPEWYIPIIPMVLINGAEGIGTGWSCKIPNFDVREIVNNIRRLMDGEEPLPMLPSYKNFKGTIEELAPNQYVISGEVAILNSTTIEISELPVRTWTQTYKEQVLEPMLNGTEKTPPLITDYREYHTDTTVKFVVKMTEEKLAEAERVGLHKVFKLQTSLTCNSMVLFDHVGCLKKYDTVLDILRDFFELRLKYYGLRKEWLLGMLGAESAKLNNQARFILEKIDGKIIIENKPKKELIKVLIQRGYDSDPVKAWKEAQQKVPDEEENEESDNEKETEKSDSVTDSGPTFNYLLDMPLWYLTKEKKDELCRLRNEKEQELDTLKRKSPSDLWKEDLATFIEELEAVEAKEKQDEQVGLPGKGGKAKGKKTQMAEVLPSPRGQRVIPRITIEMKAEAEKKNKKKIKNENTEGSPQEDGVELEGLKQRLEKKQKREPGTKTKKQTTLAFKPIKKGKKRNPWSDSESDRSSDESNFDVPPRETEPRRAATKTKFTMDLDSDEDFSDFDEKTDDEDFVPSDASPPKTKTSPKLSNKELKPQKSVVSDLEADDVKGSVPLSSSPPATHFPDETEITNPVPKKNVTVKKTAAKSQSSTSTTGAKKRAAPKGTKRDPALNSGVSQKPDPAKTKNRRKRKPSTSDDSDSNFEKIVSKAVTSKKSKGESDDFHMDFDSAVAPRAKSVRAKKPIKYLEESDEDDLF

Molecule | Topo-IIα inhibition mechanism (formation of linear DNA) [1] | Topo-IIα inhibition at 100 μM [2] | further results
Cc1c2ccncc2c(C)c2c1[nH]c1ccccc12 [ellipticine] | produce discrete bands of linear DNA |  | 
CCNC(=S)N/N=C(\C)c1ccccn1 [HAp4eT, (E)-N-Ethyl-2-(1-(pyridin-2-yl)ethylidene)hydrazinecarbothioamide] |  | displaying any degree of inhibition | 
COc1cccc2c1C(=O)c1c(O)c3c(c(O)c1C2=O)C[C@@](O)(C(=O)CO)C[C@@H]3O[C@H]1C[C@H](N)[C@H](O)[C@H](C)O1 [doxorubicin] |  |  | IC50 [3]: 1 to 5 µM
[Cl][Cu][Cl] [CuCl2] |  |  | Topo-IIα inhibition, control experiment ([2]; any concentrations below 500 μM): does not inhibit the enzyme
O=c1c(-c2ccc(O)cc2)coc2cc(O)cc(O)c12 [genistein] | produce discrete bands of linear DNA |  | 
CNC(=S)N/N=C/c1ccccn1 [HFp4mT, (E)-N-Methyl-2-(pyridin-2-ylmethylene) hydrazinecarbothioamide] |  | displaying any degree of inhibition | 
CCNC(=S)N/N=C/c1ccccn1 [HFp4eT, (E)-N-Ethyl-2-(pyridin-2-ylmethylene)hydrazinecarbothioamide] |  | displaying any degree of inhibition | 
COc1cc(NS(C)(=O)=O)ccc1Nc1c2ccccc2nc2ccccc12 [m-AMSA] | produce discrete bands of linear DNA |  | 
2-Formylpyridine-N^4-allylthiosemicarbazonatochlorocopper (II) [Cu(Fp4alT)Cl] | completely inhibits Topo-IIα without promoting the formation of linear DNA products |  | 
O=C1NC(=S)NC(=O)C1C(=O)Nc1ccccc1 [merbarone] |  |  | IC50 [3]: 40 to 50 µM
CN(C)C(=S)NN=C(c1ccccn1)c1ccccn1 [Dp44mT, di-2-pyridylketone-4,4-dimethylthiosemicarbazone] |  |  | concentration at which in vivo Topo-IIα inhibition was found (Topo-IIα): < 1 µM
CNC(=S)N/N=C(\C)c1ccccn1 [HAp4mT, (E)-N-Methyl-2-(1-(pyridin-2-yl)ethylidene)hydrazinecarbothioamide] |  | displaying any degree of inhibition | 
